Values joined by “and” are separate entries in the source; they are usually repeats but may differ in a detail not shown here. Equal entries are not always repeated.
What was measured:
[1] = Total parenteral nutrition (TPN) with ester as energy substitute in rats; details: 9 days
Protocol: Sprague-Dawley male rats weighing 180-190 g were sur­gically fitted with a central vein catheter protected by a saddle (Roos et al, 1981). Total parenteral nutrition (TPN) was administered in accordance with the following standard formula: Fat: 8 g/kg body weight and 24 hours Nitrogen: 1,2 g/kg body weight and 24 hours Total energy supplied: 1257 kJ/kg body weight and 24 hours Liquid: 300 ml/kg body weight and 24 hours The glucose to fat ratio was 70-30 energy percent. The energy percentage obtained from the energy substitutes during the test period corresponded to about 5% NPC. The TPN-mixture was obtained by mixing Vamin^R 14 (a solution of essential and non-essential amino acids for paren­teral nutrient administration, retailed by KabiVitrum AB) with no electrolytes, glucose solution 50% and Intralipid^R 20% in suitable proportions and adding adequate quantities of electrolytes, trace minerals and vitamins. Subsequent to infusing the rats continuously for one week (20 hours/day), the animals were divided randomly into three groups, with 6 animals in each group. The animals of one group were administered with the same TPN-formula as that previously mentioned (the reference group). […] The compounds were given in a dosage of 2 g/kg body weight and 24 hours in a yield corres­ponding to equivalent glucose energy quantities. In other respects, the TPN-program or formula was the same as that for the reference group. The experiment was then continued for a further 9 days, during which the weights of the animals were recorded daily and urine collected and frozen. At the end of the test period, the rats were killed by heart puncture while under a pentobarbital anesthetic and an autopsy was performed on the rat carcasses with microscopic examination. The body organs were sent to a laboratory for pathological assay.

[2] = Cold storage of fat emulsion (Intralipid) with ester admixture: visual inspection, pH, mean particle size; type: physicochemical; details: Example 33: pure ester in 20 percent emulsion, 5%, +5°C, 5 days
[3] = test system: Staphylococcus aureus ATCC 6535; test: Microorganism count in 2% and 0.2% ester emulsions (Example 13); type: cell-based
Protocol: Both of the emulsions included egg-yolk phospholipide 1,2% and sterile water, in addition to ester. The emulsions were prepared aseptically, by emulsifying sterile-filtered ester with a sterilized dispersion of egg-yolk phospholipids.
Aliquots of these emulsions were diluted with phosphate buffer (0.01 M, pH=7.0), in the proportions of 1 and 100 in respective emulsions. Staphylococcus aureus ATCC 6535 was then added to the emulsions. The samples were then incubated at +37°C for 20 hours. The microorganism count was carried out after 1-5 minutes, 2 and 20 hours, in the manner described in microbiological literature. Parallel with the above experiments, a check was made on the phospholipid solution 1,2% and TSB (Tryptone soya broth), by adding Staphylococcus aureus ATCC 6535. The latter substrate was tested to ascertain whether the controlled microorganisms were viable. […] The starting concentration was about 5x10³. […] After 2 hours, the number of microorganisms was 0 and 10 respectively, and after 20 hours 0 and 0 respectively. In the samples containing 5-methyl-3-oxo-hexanoic acid ethyl ester with concentrations of 2% and 0.2%, the number of microorganisms per ml present after 1-5 minutes was 10⁴, after 2 hours 0 and 100 respectively, and after 20 hours 0 and 0 respec tively.

[4] = Cold storage of fat emulsion (Intralipid) with ester admixture: visual inspection, pH, mean particle size; type: physicochemical; details: for Mean particle size, X / pH / Mean particle size (single readings, Coulter nanosizer): Example 32: Intralipid 20%; for pH: after 5 day storage; for Mean particle size (single readings, Coulter nanosizer): listed as 5-methyl-3-oxo-pentanoic acid ethyl ester; for emulsion quality, daily visual inspection: Example 32: mother concentrate in Intralipid 20%; for emulsion quality, daily visual inspection / emulsion stability, daily visual inspection: +5°C, 5 days
Protocol: A so-called mother concentrate was prepared by dissolving 6 g of egg-yolk phospholipids in 40 g of 4-methyl-3-oxo-pentanoic acid ethyl ester at +60°C, while stirring. 34 g of 99% ethyl alcohol were then added to the solution, whereafter the solution was cooled to room temperature and dispensed into 20 ml glass flasks. Nitrogen gas was then bubbled through the liquid and the flasks then stoppered and capsuled. The bottles were then autoclaved at +120°C and at 118 kPa for 20 minutes. A 10% fat emulsion for parenteral nutrient administration (Intralipid^R retailed by KabiVitrum AB, Stockholm) was added to the preparation under strict asceptic conditions, to a 4-methyl-3-oxo-pentanoic acid ethyl ester concentration of 0.2, 1 and 3% respectively. The emulsion was shaken for 5 minutes in a shaking machine and then placed in a cold environment (+5°C). The emulsion was thereafter observed over a 5 day period, wherewith a daily inspection was carried out to assess the formation of oil droplets, creaming or oil separation. The assessment was made in comparison with a known emulsion for parenteral use (Intralipid^R 10%). […] Subsequent to 5 days storage, an analysis was made of the pH and mean particle size in a Coulter nanosizer. The following values were obtained:
(§1) A so-called mother concentrate produced by dissolving 6 g egg-yolk phospholipids in 40 g of 4-methyl-3-oxo-pentanoic acid-ethyl ester at +60°C, while stirring the system. 34 g of 99% ethyl alcohol were then added to the solution, whereafter the solution was cooled to room temperature and dispensed into 20 ml glass flasks. Nitrogen gas was perculated through the contents of the flasks, and the flasks subsequently stoppered and fitted with capsules. The flasks were then autoclaved at 120°C and 118 kPa over a period of 20 minutes. This preparation was added to a 20% fat emulsion (Intralipid^R) under strict aseptic conditions, such that the concentation of 4-methyl-3-oxo-pentanoic acid ethyl ester was 0.2 and 1 and 3% respectively. The emulsion was shaken for 5 minutes in a shaker and then placed in a cold environment (5°C). The emulsion was inspected over a period of 5 calender days, wherewith a visual inspection was carried out daily in order to ascertain the occurrence of any oil droplets that may form, creaming or oil separation. The assay was effected by comparison with a known emulsion for parenteral use (Intralipid^R 20%). […] The pH of the emulsion was measured after a 5 day storage period. The mean particle size was measured in a Coulter^R nanosizer. The following values were obtained:
as §1, with “prepara tion” for “preparation”, “10%” for “20%”, “10%).” for “20%).”, “obtained: […]” for “obtained:”

## CCOC(=O)CC(=O)CC(C)C [5-methyl-3-oxo-hexanoic acid ethyl ester]
[1]; 2 g/kg body weight and 24 hours
  toxicity at the dosages tested: non-toxic
[1]; ester 2 g/kg body weight and 24 hours in place of equivalent glucose energy
  average growth per day during the whole of the test period: 2.8 ± 0.2 g
[2]
  emulsion stability, daily visual inspection: unstable
[3]; 0.2%, after 2 hours
  number of microorganisms: 100 per ml
[3]; 0.2%, after 20 hours
  number of microorganisms: 0 per ml
[3]; 2%, after 2 hours
  number of microorganisms: 0 per ml
[3]; 2%, after 20 hours
  number of microorganisms: 0 per ml
[4]; 0.2% admix
  Mean particle size, X: 322
  pH: 7.4
  Mean particle size (single readings, Coulter nanosizer): 317 and 321 and 324
[4]; 1% admix
  Mean particle size, X: 319
  pH: 7.0
  Mean particle size (single readings, Coulter nanosizer): 317 and 324 and 321
[4]; 3% admix
  Mean particle size, X: 324
  pH: 6.7
  Mean particle size (single readings, Coulter nanosizer): 324 and 328 and 321
[4]; 0.2% addition
  emulsion quality, daily visual inspection: No change in quality
[4]; 1% addition
  emulsion quality, daily visual inspection: No change in quality
[4]; 3-percent mixture
  emulsion quality, daily visual inspection: fully acceptable over the first 4 days
[4]; Example 33: pure ester in 10% fat emulsion (Intralipid), 0.2%
  emulsion stability, daily visual inspection: stable over the whole of the test period
[4]; Example 33: pure ester in 10% fat emulsion, 1%
  emulsion stability, daily visual inspection: stable over the whole of the test period
[4]; Example 33: pure ester in 10% fat emulsion, 3%
  emulsion stability, daily visual inspection: stable over the whole of the test period
[4]; Example 33: pure ester in 10% fat emulsion, 5%
  emulsion stability, daily visual inspection: stable over the first 2 days
[4]; Example 33: pure ester in 20 percent emulsion, 0.2%
  emulsion stability, daily visual inspection: remained stable over the whole of the test period
[4]; Example 33: pure ester in 20 percent emulsion, 1%
  emulsion stability, daily visual inspection: remained stable over the whole of the test period
[4]; Example 33: pure ester in 20 percent emulsion, 3%
  emulsion stability, daily visual inspection: remained stable for 1 day
